{
  "source": "patent US8765688B2",
  "about": "“Anti-dandruff compositions containing peptides” (priority 2007, dated 2014)",
  "assay_type_in_all_cases": "cell-based",
  "key": {"Malassezia furfur [1]": {"tested_on": "Malassezia furfur", "assay": "Minimum inhibitory concentration (MIC) of P18 in the presence of shampoo basic formulation 31-3, CFU after 24 hours", "conditions": "for CFU after 24 hours of incubation: in presence of shampoo basic formulation 31-3", "procedure": "The minimum inhibitory concentration (MIC) of the peptide P18 (H-KWKLFKKIPKFLHLAKKF-NH2; carboxy-terminal end amidated; SEQ ID NO: 3) in the presence of the shampoo basic formulation 31-3 (table 16) was tested as follows: […]\nThe following shampoo basic formulation was prepared: […]\nThe shampoo basic formulation was prepared by mixing and dissolving the components Texapon NSO and Tego Betain L7. The pH was adjusted to pH 6-7 with NaOH.\nThe effect of the peptide against M. furfur was analyzed as follows:\n(§1) Growth medium: M472-Pityrosporum medium according to DSMZ\n(§2) The components were sterilized at 121° C., 1 bar superatmospheric pressure for 20 minutes.\n2 g/L of olive oil (sterilized by filtration and, after autoclaving, added to the other components)\nSince it was a two-phase medium, the complete medium was treated with sonication in order to enlarge the phase boundary.\nFor agar plates, if appropriate, 150 g/L of agar agar were added to the medium.\nThe growth test was carried out as follows: A shake flask with M472-Pityrosporum medium was inoculated with M. furfur and incubated with shaking overnight at 30° C. and 200 rpm.\nA 96-well microtiter plate was filled with in each case 170 μl of M472-Pityrosporum medium and inoculated with 10 μl of M. furfur suspension of the overnight culture. This corresponded to an optical density of 0.02-0.1, measured at 620 nm. 20 μl of shampoo basic formulation 31-3 were added to this mixture. Peptide P18 was dissolved in DMSO with a concentration of 10 mM.\nThe microtiter plate was incubated with shaking at 30° C.\nAfter incubation for 24 hours, the colony-forming units (CFU) were determined by resuspending 1 μl of each of the suspensions in 10 μl of medium and then plating out the obtained suspensions. After incubation for 6 days, the colonies on the plate were counted. The experiment was carried out in double determination."}, "Escherichia coli": {"tested_on": "Escherichia coli", "assay": "Long-term stability of P18 (2 weeks at 37° C.), detected through inhibition of the growth of Escherichia coli", "conditions": "for optical density at 620 nm: 25 μM", "procedure": "The long-term stability of P18 was observed over a period of 2 weeks. For this, a 1 mM P18 solution in water was incubated at 37° C. over the entire period. At the start of the experiment and then on these two weeks, the antimicrobial activity was detected through inhibition of the growth of Escherichia coli. The growth medium used here was LB medium as complex medium. The medium comprised 10 g of trypton, 5 g of yeast extract and 10 g of NaCl per liter.\nThe growth test was carried out as follows: A shake flask of LB medium was inoculated with Escherichia coli and incubated overnight with shaking at 37° C. and 200 rpm. A 96-well microtiter plate was filled with in each case 100 μl of LB medium and inoculated with E. coli suspension of the overnight culture. The E. coli suspension was adjusted at the start of the experiment to an optical density, measured at 620 nm, of about 0.02. The concentrates of the P18 inhibitor solutions were 1 mM in water.\nThe growth of the following mixtures was compared by measuring the optical density:\nE. coli suspension without the addition of an inhibitor.\nE. coli suspension and addition of an aqueous P18 solution with a final concentration of 25 μM. The aqueous P18 solution had been freshly prepared.\nE. coli suspension and addition of an aqueous P18 solution with a final concentration of 25 μM. The aqueous stock solution had been incubated for 2 weeks at 37° C.\nThe growth was observed over a period of 40 hours by measuring the optical density."}, "Malassezia furfur [2]": {"tested_on": "Malassezia furfur", "assay": "Long-term stability of P18 in shampoo basic formulations (40° C.) tested on M. furfur, CFU", "conditions": "stored at 40° C., 0; 12 and 22 days", "procedure": "Long-term stability of the peptide P18 (H-KWKLFKKIPKFLHLAKKF-NH2; carboxy-terminal end amidated) in shampoo basic formulations was tested.\nThe following shampoo basic formulations were prepared:\nThe components Texapon NSO and Tego Betain L7 were mixed and dissolved. The pH was adjusted to pH 6-7 with NaOH. In the following, 100 mM of aqueous P18 peptide solution were prepared. A corresponding volume of 100 mM P18 peptide solution was added to each formulation in order to obtain peptide P18 final concentrations as indicated in table 15.\nThe formulations were stored at 40° C.\nAfter 0; 12 and 22 days, the effect of the formulations against M. furfur was analyzed.\nas §1, §2\n2 g/L of olive oil (sterilized by filtration and, after autoclaving, added to the other components) […]\nA 96-well microtiter plate was filled with in each case 100 μl of M472-Pityrosporum medium and inoculated with M. furfur suspension of the overnight culture. The M. furfur suspension was adjusted at the start of the experiment to an optical density, measured at 600 nm, of 0.1. […]\nAfter 24 hours, the colony-forming units (CFU) were determined. For this, 1 μl and 10 μl were plated out from each of the suspensions and, after incubation for 6 days, the colonies were counted."}},
  "note": "Ends that are not written are not given here.",
  "data": [
    {"substance": "KWKLFKKIPKFLHLAKKF-NH2 [P18, KWKLFKKIPKFLHLAKKF-NH2]", "values": [
      {"measurement": "CFU after 24 hours of incubation", "setting": "Malassezia furfur [1]; P18 concentration 25 μM", "result": 80},
      {"measurement": "CFU after 24 hours of incubation", "setting": "Malassezia furfur [1]; P18 concentration 50 μM", "result": 32},
      {"measurement": "CFU after 24 hours of incubation", "setting": "Malassezia furfur [1]; P18 concentration 100 μM", "result": 0},
      {"measurement": "CFU after 24 hours of incubation", "setting": "Malassezia furfur [1]; P18 concentration 200 μM", "result": 0},
      {"measurement": "CFU after 24 hours of incubation", "setting": "Malassezia furfur [1]; P18 concentration 300 μM", "result": 0},
      {"measurement": "CFU after 24 hours of incubation", "setting": "Malassezia furfur [1]; P18 concentration 400 μM", "result": 0},
      {"measurement": "CFU after 24 hours of incubation", "setting": "Malassezia furfur [1]; P18 concentration 500 μM", "result": 0},
      {"measurement": "P18 concentrations that completely inhibit growth of M. furfur", "setting": "Malassezia furfur [1]; in the presence of shampoo basic formulation 31-3, 24 hours", "result": "above 100 μM"},
      {"measurement": "antimicrobial activity after storage (long-term stability)", "setting": "Escherichia coli; 1 mM solution in water, 2 weeks at 37° C.", "result": "unchanged"},
      {"measurement": "optical density at 620 nm", "setting": "Escherichia coli; fresh aqueous P18 solution, incubation time 0 h", "result": 0.098},
      {"measurement": "optical density at 620 nm", "setting": "Escherichia coli; fresh aqueous P18 solution, incubation time 16 h", "result": 0},
      {"measurement": "optical density at 620 nm", "setting": "Escherichia coli; fresh aqueous P18 solution, incubation time 24 h", "result": 0},
      {"measurement": "optical density at 620 nm", "setting": "Escherichia coli; fresh aqueous P18 solution, incubation time 40 h", "result": 0},
      {"measurement": "optical density at 620 nm", "setting": "Escherichia coli; stored aqueous P18 solution (2 weeks at 37° C.), incubation time 0 h", "result": 0.081},
      {"measurement": "optical density at 620 nm", "setting": "Escherichia coli; stored aqueous P18 solution (2 weeks at 37° C.), incubation time 16 h", "result": 0},
      {"measurement": "optical density at 620 nm", "setting": "Escherichia coli; stored aqueous P18 solution (2 weeks at 37° C.), incubation time 24 h", "result": 0},
      {"measurement": "optical density at 620 nm", "setting": "Escherichia coli; stored aqueous P18 solution (2 weeks at 37° C.), incubation time 40 h", "result": 0},
      {"measurement": "long-term stability in shampoo basic formulations (in words)", "setting": "Malassezia furfur [2]", "result": "stable characteristics"}
    ]}
  ]
}
